In patent US9862711B2, “Pyrazine derivatives as phosphatidylinositol 3-kinase inhibitors” (NOVARTIS AG, priority 2014, dated 2018) one finds IC50 data, which are given here for 9 molecules.

A value given as a limit tells only on which side of the number the result lay.

In the assay the target is PI 3-kinase beta (Homo sapiens (Human), UniProt P42338). As to the kind of experiment: Kinase Glo Luminescent Kinase Assay (Assay B). It counts as biochemical. The settings on record: 1 μM ATP, read-out: Assay B PI3Kβ IC50. From the text: Kinase Glo Luminescent Kinase Assay (Kglo) for PI 3-Kinase Alpha (A), Pb 3-Kinase Beta (B), Vps34 (C), PI 4-Kinase Beta (D)
PI 3-kinase beta, sequence (P42338 2-1070): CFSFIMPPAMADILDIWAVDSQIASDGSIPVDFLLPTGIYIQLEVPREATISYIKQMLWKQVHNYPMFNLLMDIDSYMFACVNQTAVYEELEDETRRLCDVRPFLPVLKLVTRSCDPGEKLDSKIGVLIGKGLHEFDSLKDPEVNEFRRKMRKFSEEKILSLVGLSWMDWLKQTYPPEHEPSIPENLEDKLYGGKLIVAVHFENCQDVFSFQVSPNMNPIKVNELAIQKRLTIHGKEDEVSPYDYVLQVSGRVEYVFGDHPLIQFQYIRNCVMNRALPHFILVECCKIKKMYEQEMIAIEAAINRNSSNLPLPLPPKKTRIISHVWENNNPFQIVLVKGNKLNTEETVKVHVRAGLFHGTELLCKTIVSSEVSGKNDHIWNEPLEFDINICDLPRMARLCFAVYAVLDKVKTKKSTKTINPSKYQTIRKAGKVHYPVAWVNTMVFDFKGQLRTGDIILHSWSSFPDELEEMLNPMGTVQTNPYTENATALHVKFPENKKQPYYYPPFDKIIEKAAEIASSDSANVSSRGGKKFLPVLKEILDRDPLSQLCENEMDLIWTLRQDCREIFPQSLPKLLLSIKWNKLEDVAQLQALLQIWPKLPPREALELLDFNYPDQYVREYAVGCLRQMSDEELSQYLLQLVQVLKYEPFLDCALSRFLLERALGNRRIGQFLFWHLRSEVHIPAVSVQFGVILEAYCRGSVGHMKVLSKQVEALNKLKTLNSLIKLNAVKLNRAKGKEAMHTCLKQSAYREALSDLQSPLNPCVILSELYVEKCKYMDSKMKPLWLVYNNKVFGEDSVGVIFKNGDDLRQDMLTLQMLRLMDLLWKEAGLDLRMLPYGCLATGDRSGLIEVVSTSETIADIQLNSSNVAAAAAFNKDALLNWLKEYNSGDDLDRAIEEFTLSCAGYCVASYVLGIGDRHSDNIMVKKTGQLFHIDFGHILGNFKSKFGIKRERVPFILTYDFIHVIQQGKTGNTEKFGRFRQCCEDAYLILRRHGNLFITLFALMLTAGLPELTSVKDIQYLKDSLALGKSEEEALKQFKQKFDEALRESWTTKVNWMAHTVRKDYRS
The luminescence-based ATP detection reagent KinaseGlo was obtained from Promega, (Cat. No. V6714, Lot No. 236161) through Catalys, Wallisellen, Switzerland. L-alpha-phosphatidylinositol (PI, liver, bovine) was obtained from Avanti Polar Lipid (Cat. No. 840042C, Lot#LPI-274), Phosphatidylinositol-4,5-bisphosphate (PIP(4,5)2) was also obtained from Avanti Polar Lipid (Cat. No. 840046X). L-α-Phosphatidylserine (PS) was obtained from Avanti Polar Lipid (Cat. No. 840032C), n-Octylglucoside from Avanti Polar Lipid (Cat. No. 10634425001). Luminescence is a well established readout to determine ATP concentrations and can thus be used to follow the activity of many kinases regardless of their substrate. The Kinase Glo Luminescent Kinase Assay (Promega, Madison/WI, USA) is a homogeneous HTS method of measuring kinase activity by quantifying the amount of ATP remaining in solution following a kinase reaction.
50 nL of compound dilutions were dispensed onto black 384-well low volume Non Binding Styrene (NBS) plates (Costar Cat. No. NBS#3676). L-α-phosphatidylinositol (PI), provided as 10 mg/ml solution in methanol, was transferred into a glass tube and dried under a nitrogen beam. It was then resuspended in 3% OctylGlucoside (1-O-n-octyl-beta-D-glucopyranoside) by vortexing and stored at 4° C. 5 μL of a mix of PI/OctylGlucoside with the PI 3-kinase alpha and PI 3-kinase beta subtypes, or Vps34 or PI 4-kinase beta were added. Kinase reactions were started by the addition of 5 μl of an ATP-mix containing in a final volume 10 μL 10 mM TRIS-HCl pH 7.5, 3 mM MgCl2, 50 mM NaCl, 0.05% CHAPS, 1 mM DTT and 1 μM ATP at room temperature. Reactions were stopped with 10 μl of KinaseGlo and plates were read 10 mins later in a Synergy2 reader using an integration time of 0.1 seconds per well. 2.5 μM of NVP-BGT226 (1-(3-(trifluoromethyl)-4-(piperazin-1-yl)phenyl)-8-(6-methoxypyridin-3-yl)-3-methyl-1H-imidazo[4,5-c]quinolin-2(3H)-one) was added to the assay plates to generate the 100% inhibition of the kinase reaction, and the 0% inhibition was given by the solvent vehicle (90% DMSO in water). (1-(3-(trifluoromethyl)-4-(piperazin-1-yl)phenyl)-8-(6-methoxypyridin-3-yl)-3-methyl-1H-imidazo[4,5-c]quinolin-2(3H)-one) was used as a reference compound and included in all assay plates in the form of 16 dilution points in duplicate.
IC50 values of the percentage inhibition of each compound at 8 concentrations (10, 3.0, 1.0, 0.3, 0.1, 0.030, 0.010 and 0.003 μM) n=2 were derived by fitting a sigmoidal dose-response curve to a plot of assay readout over inhibitor concentration as described. All fits were performed with the program XLfit4 (ID Business Solutions, Guildford, UK).
Regarding `Cc1ncc(-c2cncc(-c3cc(S(=O)(=O)NCCCO)ccc3C)n2)s1` [Example 1, N-(3-Hydroxy-propyl)-4-methyl-3-[6-(2-methyl-thiazol-5-yl)-pyrazin-2-yl]-benzenesulfonamide], the IC50 turned out to be 6160 nM.
With `Cc1ccc(S(=O)(=O)NCC(C)(C)O)cc1-c1cncc(-c2cn(C)nc2C)n1` [Example 2, 3-[6-(1,3-Dimethyl-1H-pyrazol-4-yl)-pyrazin-2-yl]-N-(2-hydroxy-2-methyl-propyl)-4-methyl-benzenesulfonamide] the figure was 710 nM.
As to `Cc1ccc(S(=O)(=O)NCCC(C)(C)O)cc1-c1cncc(-c2cn(C)nc2C)n1` [Example 3, 3-[6-(1,3-Dimethyl-1H-pyrazol-4-yl)-pyrazin-2-yl]-N-(3-hydroxy-3-methyl-butyl)-4-methyl-benzenesulfonamide], the IC50 was 1450 nM.
In the case of `Cc1ccc(S(=O)(=O)NCC2(C)COC2)cc1-c1cncc(-c2cn(C)nc2C)n1` [Example 4, Trans 3-[6-(1,3-Dimethyl-1H-pyrazol-4-yl)-pyrazin-2-yl]-4-methyl-N-(3-methyl-oxetan-3-ylmethyl)-benzenesulfonamide], the IC50 was 680 nM.
With `Cc1ncc(-c2cncc(-c3cc(S(=O)(=O)N[C@H]4CC[C@H](O)CC4)ccc3C)n2)s1` [Example 5, Trans N-(4-Hydroxycyclohexyl)-4-methyl-3-(6-(2-methylthiazol-5-yl)pyrazin-2-yl)benzenesulfonamide] the figure was 1120 nM; with `Cc1ccc(S(=O)(=O)NCC(C)(C)CO)cc1-c1cncc(-c2cn(C)nc2C)n1` [Example 8, 3-[6-(1,3-Dimethyl-1H-pyrazol-4-yl)-pyrazin-2-yl]-N-(3-hydroxy-2,2-dimethyl-propyl)-4-methyl-benzenesulfonamide], 680 nM.
Turning to `Cc1ccc(S(=O)(=O)NCCC(C)(C)O)cc1-c1cncc(-c2cnn(CCN3CCOCC3)c2)n1` [Example 9, N-(3-Hydroxy-3-methyl-butyl)-4-methyl-3-{6-[1-(2-morpholin-4-yl-ethyl)-1H-pyrazol-4-yl]-pyrazin-2-yl}-benzenesulfonamide], the half-maximal inhibitory concentration (IC50) was more than 9100 nM.
With `Cc1ccc(S(=O)(=O)NCCC(C)(C)O)cc1-c1cncc(-c2cn(CCN3CCOCC3)nc2C)n1` [Example 10, N-(3-Hydroxy-3-methyl-butyl)-4-methyl-3-{6-[3-methyl-1-(2-morpholin-4-yl-ethyl)-1H-pyrazol-4-yl]-pyrazin-2-yl}-benzenesulfonamide], the IC50 is 8500 nM.
With `Cc1ccc(S(=O)(=O)N[C@H]2CC[C@H](O)CC2)cc1-c1cncc(-c2cccnc2)n1` [Example 11, Trans N-(4-Hydroxy-cyclohexyl)-4-methyl-3-(6-pyridin-3-yl-pyrazin-2-yl)-benzenesulfonamide] the figure was 3930 nM.
